In patent US20100028360A1, “METHODS FOR THE MODULATION OF BRAIN PROGESTAGEN SIGNALING IN THE PREVENTION AND TREATMENT OF NEUROLOGICAL DISORDERS AND NEURODEGENERATIVE DISEASES” (priority 2008, published 2010):
“Also recorded” adds a separate entry of the source. No end group written: not given here.

Legend:
[1] = test system: hESC; assay: hESC cell proliferation, trypan blue assay; assay type: cell-based, human; conditions: E2 10 nM, P4 2 μM or E2+P4, 6 d; compared to untreated control cells
Protocol: (§1) FIG. 1. P4 differentiates hESC into neuroectoderm. (a) hESC were grown in TESR1 media—Li in the presence of E2 (10 nM), P4 (2 μM) or E2 (10 nM)+P4 (2 μM) for 6 d and cell proliferation measured using the trypan blue assay. Results are expressed as mean±SEM, n=3 (*p<0.05, **p<0.005 compared to 6 d control). (b) Equal amounts of protein from cell lysates of hESC treated for 9 d as described above were analyzed by immunoblot using a monoclonal antibody against nestin (clone 10C2; Chemicon, Calif., USA). (c) hESC were cultured for 4 d, enzymatically lifted and placed into EB media (containing serum) and rocked gently for an additional 4 d prior to being placed in one of two neural induction medias for an additional 11 days, where P4 was either absence or present. During this transition from EB to rosettes, colony structures treated with P4 also were treated with a PR antagonist (RU-486; 20 μM) or ER antagonist (ICI 182,780) for 11 d. At 19 d, morphological observation and molecular analysis were performed. […] (ii) hESC structure in the absence of P4. (iii) PR antagonist treated rosettes (RU-486, 20 μM). (iv) ER antagonist (ICI 182,780). (d) Equal amounts of protein from cell lysates of the above structures were analyzed by immunoblot with the monoclonal antibody against human nestin.

[2] = test system: hESC; assay: EB and neuroectodermal rosette/NPC formation from hESC, morphological observation; assay type: cell-based, human; conditions: neural induction media with P4, antagonist for 11 d (RU-486 20 μM); observed at 19 d
Protocol: as §1

[3] = test system: nestin; assay: nestin immunoblot of hESC / EB-rosette structure lysates; assay type: cell-based, human
Protocol: as §1

[4] = test system: Tg2576 mice carrying the Swedish AβPP mutation; conditions: aged Tg2576 transgenic mice; cited from earlier work
[5] = test system: rat hippocampal slices; assay: extracellular field responses in CA1 of isolated hippocampal slices; assay type: cell-based; conditions: 50 nM
Protocol: FIG. 3. GnRH1 increases neuronal excitability in hippocampal slices from old rats. Typical traces from hippocampal slice cut transversely at 500 μm thickness from 37 day (A) and 19 month (B) old male rats. Orthodromic extracellular field responses were recorded in the cell body layer of the CA1. Responses were evoked by a bipolar electrode with a constant current stimuli (50 μs duration) delivered every 30 s by electrodes placed in the schaeffer collaterals. 50 nM GnRH1 was used. Mean values are shown in C., n=5 slices each for young rats and n=3 slices each for old rats. Slices from two young and two old animals were used. Superfusion of human GnRH evoked a 50% increase in the maximum amplitude of population spikes in hippocampal slices from old rats compared to controls (FIGS. 3B, C).

With C[C@]12CC[C@@H]3c4ccc(O)cc4CC[C@H]3[C@@H]1CC[C@@H]2O [E2, estradiol] as the compound, how does the “decrease in the rate of hESC proliferation” value [1] read?
The value was 16%.

Which results are given for C[C@]12CC[C@@H]3c4ccc(O)cc4C[C@@H](CCCCCCCCC[S+]([O-])CCCC(F)(F)C(F)(F)F)[C@H]3[C@@H]1CC[C@@H]2O (stereo partly drawn) [ICI 182,780]?
EB and neuroectodermal rosette/NPC formation [2]: No rosettes were detected; nestin expression in antagonist treated structures ([3]; antagonist for 11 d (RU-486 20 μM), immunoblot at 19 d): absence of nestin

For CC(=O)[C@H]1CC[C@H]2[C@@H]3CCC4=CC(=O)CC[C@]4(C)[C@H]3CC[C@]12C [P4, pregn-4-ene-3,20-dione], which “EB and neuroectodermal rosette/NPC formation” value [2] is on record?
The value was “a minimum of three rosette structures”.

What about the “decrease in the rate of hESC proliferation” value [1] of the same compound?
Its value is 29%.

And the “nestin expression in hESC” value ([3]; hESC treated for 9 d, E2 10 nM, P4 2 μM, immunoblot)?
Its value is “increased the expression of the neuroectodermal marker nestin; also recorded: induces nestin expression”.

What does the source list for CCNC(=O)[C@@H]1CCCN1C(=O)[C@H](CCCNC(=N)N)NC(=O)[C@H](CC(C)C)NC(=O)[C@@H](CC(C)C)NC(=O)[C@H](Cc1ccc(O)cc1)NC(=O)[C@H](CO)NC(=O)[C@H](Cc1c[nH]c2ccccc12)NC(=O)[C@H](Cc1c[nH]cn1)NC(=O)[C@@H]1CCC(=O)N1 [leuprolide acetate]?
Aβ deposition [4]: halts Aβ deposition; cognitive performance [4]: improves cognitive performance

Which “increase in the maximum amplitude of population spikes compared to controls” value ([5]; hippocampal slices from old (19 month old) rats) does the source give for “GnRH1: human gonadotropin releasing hormone, superfused at 50 nM (QHWSYGLRPG; ends and bridges not checked; UniProt P01148 24-33, looked up)” here?
Its value is 50%.

What about the “increase in neuronal excitability compared to controls” value ([5]; hippocampal slices from young (37 day old) rats) of the same compound?
Its value is 22%.

And the “maximum amplitude of field responses, cell body layer of CA1” value ([5]; old rats, n=3, control 2.54±0.18 mV, p=0.05)?
Its value is 3.99±0.84 mV.

And the “maximum amplitude of field responses, cell body layer of CA1” value ([5]; young rats, n=5, control 7.0±1.4 mV, p=0.548)?
The value was 7.9±2.7 mV.
